Columns and labels:
[1] = Effect of treatment rate on PFAS removal from synthetic AFFF wastewater, NMR (Example 4)
Experimental: Dimethyldimyristylammonium Bromide was tested in synthetic AFFF wastewater to determine if removal efficiency of the PFAS is affected by treatment rate. The treatment compound was added at 2%, 3%, and 4% w/w loading to AFFF wastewater. Solids were separated out via centrifugation and the solution was analyzed by NMR. […] FIG. 5 is the NMR spectra of each solution after treatment. […] As quat loading increased, the total area under the peaks was reduced. In the sample with 4% dimethyldioctadecylammonium bromide loading, total peak area was reduced by 90%.

[2] = Short chain PFAS standard treated with 2% quat: all PFAS (Example 5)
Experimental: A standard with approximately 1000 ppt each of PFOA, perfluoro-n-pentanoic acid (PFPeA), and perfluorobutane sulfonic acid (PFBS) was prepared via serial dilution and treated with 2% dimethyldioctadecylammonium bromide in technical triplicate. Samples were centrifuged and the liquid was filtered into a new centrifuge tube using a 0.45 micron syringe filter. Table 2 indicates the concentration of each PFAS after treatment.

[3] = PFAS removal kinetics in PFAS-contaminated field sample, LC-QTOF (Example 6); conditions: 0.01% treatment; aliquots at 0, 5, 10, 30, 90 minutes
Experimental: To determine PFAS removal kinetics, a PFAS-contaminated field sample was treated with dimethyldioctadecylammonium bromide. Aliquots were pulled at timed intervals and tested for remaining PFAS content. To a polypropylene bottle, 1000 mL of approximately 4 ppm PFAS-contaminated water was added to a 1 L HDPE bottle with a Teflon stir bar. The sample was stirred at 500 RPM for 10 minutes prior to the start of the experiment. To a 50 mL centrifuge tube, 20 mL aliquots were collected at 0, 5, 10, 30, and 90 minutes following treatment with 0.01%. Each sample was centrifuged to remove any remaining solids and passed through 0.45 micron filter prior to analysis by LC-QTOF. […] Subsequent PFAS removal was noted but minimal.

Concentration of remaining PFAS as concentration of quaternary ammonium compound increased ([1]; 2%, 3%, and 4% w/w loading)	SMILES	Reduction of total NMR peak area ([1]; 4% w/w loading) [%]	Reduction in all PFAS concentrations [2] [%]	Remaining PFAS content between the T=0 and T=5 sample [3]	Solubility in water (Solubility in water)
–	CCCCCCCCCCCCCCCCCC[N+](C)(C)CCCCCCCCCCCCCCCCCC.[Br-] [Dimethyldioctadecylammonium bromide, dimethyldioctadecylammonium bromide]	90	> 99.87	rapid decrease	nearly insoluble in water
decreased	CCCCCCCCCCCCCC[N+](C)(C)CCCCCCCCCCCCCC.[Br-] [Dimethyldimyristylammonium bromide, dimethyldimyristylammonium bromide]	–	–	–	–

Source: patent US20260125334A1, “TREATMENT PROCESS FOR PFAS-CONTAINING COMPOUNDS” (priority 2023, published 2026)
